Laboratory results as given in patent publication US20200360466A1, “METHOD OF IMPROVING LOWER URINARY TRACT SYMPTOMS” (Nymox Corporation, priority 2019, published 2020).
Where no end group is shown, it is not given here.

What was measured:
Assay type in all cases: in vivo, human
[1] = test system: patients with BPH who optionally also had LUTS; test: IPSS symptom evaluation after a single intraprostatic injection of FT or PBS, double-blind (Example One)
Protocol: Patients with BPH and who optionally also had LUTS were given an intraprostatic injection of either a) FT (SEQ ID NO. 1 (Ile-Asp-Gln-Gln-Val-Leu-Ser-Arg-Ile-Lys-Leu-Glu-Ile-Lys-Arg-Cys-Leu), 2.5 mg) in phosphate buffered saline pH 7.2 (“PBS”) or b) PBS alone, under double-blind conditions by a urologist in an office setting under ultrasound guidance. Patients were followed for 1 to 6 years with regular physical examinations, laboratory tests, and evaluations of symptoms. Symptomatic evaluation was measured by the International Prostate Symptom Score (IPSS) which is a quantitative scale used to gauge prostatic symptomatic improvement or worsening. The IPSS quantifies the following: 1) incomplete bladder emptying after urination; 2) frequent urination; 3) stopping and starting during urination; 4) urgent need to urinate; 5) weakness of urinary stream; 6) need to push or strain during urination; 7) need to urinate after going to sleep at night (nocturia).
IPSS items 1, 3, 5 and 6 comprise the obstructive voiding scales and IPSS items 2, 4, and 7 comprise the irritative storage scales. The difference from baseline irritative storage scores to follow-up scores; and from baseline obstructive voiding scores to follow-up scores were calculated in FT treated subjects and Placebo treated controls.

[2] = test system: patients with BPH who also optionally had LUTS; test: IPSS obstructive voiding scores after placebo injection followed by cross-over FT injection (Example Three)
Excerpt: In a third analysis group, patients with BPH who also optionally had LUTS were given an intraprostatic injection of PBS pH 7.2 vehicle alone, under double-blind conditions by a urologist in an office setting under ultrasound guidance. Patients were followed for 1 to 3 years with regular physical examinations, laboratory tests, and evaluations of symptoms. 131 patients who received PBS vehicle alone injections after 1-3 years received a cross-over injection of FT (SEQ ID NO. 1 (Ile-Asp-Gln-Gln-Val-Leu-Ser-Arg-Ile-Lys-Leu-Glu-Ile-Lys-Arg-Cys-Leu), 2.5 mg) in phosphate buffered saline pH 7.2 (“PBS”). The differences from baseline obstructive voiding scores to follow-up scores were calculated in blinded placebo treated patients (Group One); blinded placebo treated patients who received subsequent conventional oral BPH medications (Group Two), and blinded placebo treated patients who subsequently received FT treatment (Group Three).

[3] = test system: patients with BPH who also optionally had LUTS; test: IPSS obstructive voiding scores in all patients who received FT versus placebo alone (Example Four); conditions: Table 4, all FT-treated patients vs placebo alone
Excerpt: In a fourth analysis group, patients with BPH who also optionally had LUTS were given an intraprostatic injection of PBS pH 7.2 vehicle alone or of FT, under double-blind conditions by a urologist in an office setting under ultrasound guidance. Patients were followed for 1 to 3 years with regular physical examinations, laboratory tests, and evaluations of symptoms. 217 patients received double blind placebo alone (Group One). 287 patients received double blind FT alone (Group Two). After 1-3 years, 131 patients who received PBS vehicle alone injections received a cross-over injection of FT (Group Three). The final group of 189 patients received blinded FT followed after 1-3 years by a second injection of FT (Group Four). The difference from baseline obstructive voiding scores to follow-up scores were calculated in blinded placebo treated patients (n=217), and compared to groups 2-4 who received FT treatment (n=607).

[4] = Table 1, single FT injection vs PBS control
[5] = general statement in the description

Ile-Asp-Gln-Gln-Val-Leu-Ser-Arg-Ile-Lys-Leu-Glu-Ile-Lys-Arg-Cys-Leu (IDQQVLSRIKLEIKRCL; also: trifluoroacetate salt) [SEQ ID NO: 1-FT, 17-mer peptide …]
improvement in MISS measured by IPSS compared to control composition that does not contain FT [1, 4]: more than 34% | improvement in MOVS measured by IPSS compared to control composition that does not contain FT [1, 4]: more than 46% | improvement in MISS measured by IPSS compared to control composition that does not contain FT [1, 5]: more than 20% | improvement in MOVS measured by IPSS compared to control composition that does not contain FT [1, 5]: more than 30% | improvement in MOVS measured by IPSS compared to placebo control followed by conventional oral BPH medication ([2]; Table 3, cross-over FT injection): more than 320% | improvement in MOVS measured by IPSS compared to control composition that does not contain FT ([2]; Table 3, cross-over FT injection vs placebo alone): more than 104% | improvement in MOVS measured by IPSS compared to control composition that does not contain FT [3]: more than 105%
